Assay results: patent EP0411184B1, “Ascorbic acid derivative” (NIPPON HYPOX LABORATORIES INCORPORATED, priority 1989, dated 1991)

assay: Antioxidant action using stable radicals: reduction activity of DPPH (M. S. Blois method); type: biochemical; details: 0.1 mM DPPH solution in ethanol, absorbance at 517 nm after 20 minutes, difference from solvent control (0.5% or less DMF); read-out: 50% radical eliminating concentration
Method: Test example 1 (Antioxidant action examined by using stable radicals)
Reduction activity of α,α-diphenyl-β-picrylhydrazyl (DPPH) which was a stable free radical was examined according to the M. S. Blois method (Nature, vol. 181, page 1199, 1958) and used as an index to antioxidant action. Thus, specimens were added to 3 mℓ of a 0.1 mM DPPH solution in ethanol, and absorbance at a wavelength of 517 nm was measured using a spectrophotometer after 20 minutes. The difference in absorbance from the solvent control [0.5% or less of dimethylformamide (DMF)] was taken as the reduction activity.

| Structure (SMILES) | IC50 [µM] |
| --- | --- |
| CCOC(=O)C(C)OC1=C(O)C(=O)O[C@@H]1[C@@H](O)CO (stereo partly drawn) [compound 108] | 19 |
| CCCCCCCCCCCCOC1=C(O)C(=O)O[C@@H]1[C@@H](O)CO [compound 102] | 18 |
| CCCCCCCCOC1=C(O)C(=O)O[C@@H]1[C@@H](O)CO [compound 103] | 19 |
| CCCCCCCCCCCCCCCCCCOC1=C(O)C(=O)O[C@@H]1[C@@H](O)CO [compound 101, reference compound] | 32 |
| CCCCOC1=C(O)C(=O)O[C@@H]1[C@@H](O)CO [compound 104] | 23 |
| O=C(O)CCCOC1=C(O)C(=O)O[C@@H]1[C@@H](O)CO [compound 107] | 27 |
| CCOC(=O)CCCOC1=C(O)C(=O)O[C@@H]1[C@@H](O)CO [compound 106] | 21 |
| CCOC(=O)CCCCOC1=C(O)C(=O)O[C@@H]1[C@@H](O)CO [compound 105] | 20 |

The next lines start with the values.

| IC50 [µM] | Structure (SMILES) |
| --- | --- |
| 22 | CC(=O)COC1=C(O)C(=O)O[C@@H]1[C@@H](O)CO [compound 115] |
| 22 | CCOC(=O)COC1=C(O)C(=O)O[C@@H]1[C@@H](O)CO [compound 111] |
| 23 | CCCCCCCCCCOC(=O)COC1=C(O)C(=O)O[C@@H]1[C@@H](O)CO [compound 110] |
| 23 | O=C1O[C@H]([C@@H](O)CO)C(OCc2cccnc2)=C1O [compound 113, L-3-O-(3-picoyl)ascorbic acid] |
| 23 | O=C1O[C@H]([C@@H](O)CO)C(OCC(=O)c2ccccc2)=C1O [compound 112, L-3-O-benzoylmethylascorbic acid] |
| 24 | O=C(O)CCCCCCCCCCOC1=C(O)C(=O)O[C@@H]1[C@@H](O)CO [compound 114] |
| 18 | CCCCOC(=O)COC1=C(O)C(=O)O[C@@H]1[C@@H](O)CO [compound 109] |
